Measured values: ChEMBL document CHEMBL1671847, “Hybrid dual aromatase-steroid sulfatase inhibitors with exquisite picomolar inhibitory activity” (ACS Med Chem Lett, 2011)

Molecular target: T1, Aromatase (Homo sapiens, UniProt P11511)
T1 sequence (P11511 whole entry): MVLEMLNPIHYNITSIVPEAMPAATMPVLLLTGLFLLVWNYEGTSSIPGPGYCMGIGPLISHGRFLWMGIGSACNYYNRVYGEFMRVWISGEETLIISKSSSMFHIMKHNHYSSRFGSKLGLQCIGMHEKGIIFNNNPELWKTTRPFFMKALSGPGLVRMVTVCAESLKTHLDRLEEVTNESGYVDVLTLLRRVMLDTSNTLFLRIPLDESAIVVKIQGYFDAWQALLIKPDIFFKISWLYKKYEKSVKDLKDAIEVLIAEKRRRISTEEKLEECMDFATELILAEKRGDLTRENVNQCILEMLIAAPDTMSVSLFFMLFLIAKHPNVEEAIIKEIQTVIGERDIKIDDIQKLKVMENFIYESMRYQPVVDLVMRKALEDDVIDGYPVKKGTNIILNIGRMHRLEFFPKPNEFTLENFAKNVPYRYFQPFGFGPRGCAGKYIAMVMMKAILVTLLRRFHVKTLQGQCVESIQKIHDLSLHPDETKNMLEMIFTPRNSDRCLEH
Experiment: Inhibition of aromatase in human JEG-3 cells using [1beta-3H]androstenedione after 1 hr by scintillation spectrometry
Assay type: cell-based

For N#Cc1ccc(N(Cc2ccc(OS(N)(=O)=O)cc2)n2cnnc2)cc1-c1ccccc1, which IC50 is on record?
The IC50 was 0.21 nM.
